Results reported in patent US6274715A, “Tricyclic erythromycin derivatives” (priority 1997, dated 2001).
≈ marks a conversion by molar mass, not a printed value.

Assays:
Format in all cases: cell-based
[1] = tested on: PSEUDOMONAS AERUGINOSA K799/WT; experiment: In vitro antibacterial activity, MIC, BHI agar dilution; conditions: P. aeruginosa K799/WT, unit assumed
[2] = tested on: STAPHYLOCOCCUS AUREUS CMX 553; experiment: as above; conditions: S. aureus CMX 553, unit assumed
[3] = tested on: ESCHERICHIA COLI H560; experiment: as above; conditions: E. coli H560, unit assumed
[4] = tested on: STAPHYLOCOCCUS AUREUS NCTC10649M; experiment: as above; conditions: S. aureus NCTC10649M, unit assumed
[5] = tested on: PROVIDENCIA STUARTII CMX 640; conditions: P. stuartii CMX 640; BHI agar; unit assumed
[6] = tested on: STREPTOCOCCUS PYOGENES PIU 2548; experiment: In vitro antibacterial activity, MIC, BHI agar dilution; conditions: S. pyogenes PIU 2548, unit assumed
[7] = tested on: STAPHYLOCOCCUS AUREUS CMX 642A; experiment: as above; conditions: S. aureus CMX 642A, unit assumed
[8] = tested on: STREPTOCOCCUS PYOGENES 930; experiment: as above; conditions: S. pyogenes 930, unit assumed
[9] = tested on: STAPHYLOCOCCUS AUREUS A-5278; experiment: as above; conditions: S. aureus A-5278, unit assumed
[10] = tested on: CANDIDA ALBICANS CCH 442; experiment: as above; conditions: C. albicans CCH 442, unit assumed
[11] = tested on: PSEUDOMONAS AERUGINOSA K799/61; experiment: as above; conditions: P. aeruginosa K799/61, unit assumed
[12] = tested on: PSEUDOMONAS CEPACIA 296I; experiment: as above; conditions: P. cepacia 296I, unit assumed
[13] = tested on: ESCHERICHIA COLI KNK 437; conditions: E. coli KNK 437; BHI agar; unit assumed
[14] = tested on: STREPTOCOCCUS PYOGENES EES61; experiment: In vitro antibacterial activity, MIC, BHI agar dilution; conditions: S. pyogenes EES61, unit assumed
[15] = tested on: ENTEROBACTER AEROGENES ATCC 13048; experiment: as above; conditions: E. aerogenes ATCC 13048, unit assumed
[16] = tested on: PSEUDOMONAS AERUGINOSA DPHD-2862; experiment: as above; conditions: P. aeruginosa DPHD-2862, unit assumed
[17] = tested on: STAPHYLOCOCCUS AUREUS A5177; experiment: as above; conditions: S. aureus A5177, unit assumed
[18] = tested on: ESCHERICHIA COLI SS; experiment: as above; conditions: E. coli SS, unit assumed
[19] = tested on: PSEUDOMONAS AERUGINOSA BMH10; experiment: as above; conditions: P. aeruginosa BMH10, unit assumed
[20] = tested on: M[…] ATCC 4698; experiment: as above; conditions: M. luteus ATCC 4698, unit assumed
In short: (§1)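 BHI agar dilution: twelve plates with successive compound dilutions, inoculated by replicator with 1:100 culture dilutions (1:10 for slow growers such as Micrococcus and Streptococcus), 20 to 24 hours at 35-37° C. MIC was the lowest concentration giving no growth, slight haze or sparse isolated colonies versus drug-free control; erythromycin A as class reference.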

[21] = tested on: M[…] ATCC 9341; experiment: as above; conditions: M. luteus ATCC 9341, unit assumed
In short: as §1

[22] = tested on: EN[…] ATCC 8043; experiment: as above; conditions: E. faecium ATCC 8043, unit assumed
In short: as §1

[23] = tested on: STR[…] 508; experiment: as above; conditions: S. agalactiae CMX 508, unit assumed
In short: as §1

[24] = tested on: ESCHERICHIA COLI JUHL; conditions: E. coli JUHL; BHI agar; unit assumed
[25] = tested on: STAPHYLOCOCCUS EPIDERMIDIS 3519; conditions: S. epidermidis 3519; BHI agar; unit assumed
[26] = tested on: PSEUDOMONAS AERUGINOSA DPHD-5263; experiment: In vitro antibacterial activity, MIC, BHI agar dilution; conditions: P. aeruginosa DPHD-5263, unit assumed
[27] = tested on: ESCHERICHIA COLI DC-2; experiment: as above; conditions: E. coli DC-2, unit assumed
[28] = tested on: STAPHYLOCOCCUS AUREUS 1775; experiment: as above; conditions: S. aureus 1775, unit assumed
[29] = tested on: MYCOBACTERIUM SMEGMATIS ATCC 114; experiment: as above; conditions: M. smegmatis ATCC 114, unit assumed
[30] = tested on: STREPTOCOCCUS BOVIS A-5169; experiment: as above; conditions: S. bovis A-5169, unit assumed
[31] = tested on: KLEBSIELLA PNEUMONIAE ATCC 8045; experiment: as above; conditions: K. pneumoniae ATCC 8045, unit assumed
[32] = tested on: STAPHYLOCOCCUS AUREUS ATCC 6538P; experiment: as above; conditions: S. aureus ATCC 6538P, 35-37° C., 20 to 24 hours, unit assumed
[33] = tested on: PSEUDOMONAS AERUGINOSA 5007; experiment: as above; conditions: P. aeruginosa 5007, unit assumed

Work on `CCC1OC(=O)C(C)C(=O)C(C)C(OC2OC(C)CC(N(C)C)C2O)C(C)(OC)CC(C)C2=NCC(C)(CN(C)Cc3ccccc3)N3C(=O)OC1(C)C3C2C` (stereo not drawn) [Example 134] yielded an MIC [1] greater than 100 µg/mL, an MIC [2] of 0.78 µg/mL (≈ 0.994 µM) and an MIC [3] of 50 µg/mL (≈ 63.7 µM). It also gave an MIC [4] of 0.78 µg/mL (≈ 0.994 µM), an MIC [5] greater than 100 µg/mL and an MIC [6] of 0.78 µg/mL (≈ 0.994 µM). For the same compound, the MIC [7] was 0.78 µg/mL (≈ 0.994 µM), the MIC [8] was greater than 100 µg/mL and the MIC [9] was greater than 100 µg/mL. The MIC [10] was greater than 100 µg/mL, the MIC [11] was 1.56 µg/mL (≈ 1.99 µM) and the MIC [12] was greater than 100 µg/mL. The MIC [13] was greater than 100 µg/mL, the MIC [14] was 0.02 µg/mL (≈ 0.0255 µM) and the MIC [15] was greater than 100 µg/mL. For the same compound, the MIC [16] was greater than 100 µg/mL, the MIC [17] was 0.78 µg/mL (≈ 0.994 µM) and the MIC [18] was 1.56 µg/mL (≈ 1.99 µM). For the same compound, the MIC [19] was greater than 100 µg/mL, the MIC [20] was 0.78 µg/mL (≈ 0.994 µM) and the MIC [21] was 0.05 µg/mL (≈ 0.0637 µM). It also gave an MIC [22] of 0.1 µg/mL (≈ 0.127 µM), an MIC [23] of 0.02 µg/mL (≈ 0.0255 µM) and an MIC [24] of 100 µg/mL (≈ 127 µM). The MIC [25] was 0.78 µg/mL (≈ 0.994 µM), the MIC [26] was greater than 100 µg/mL and the MIC [27] was 100 µg/mL (≈ 127 µM). The MIC [28] was greater than 100 µg/mL, the MIC [29] was 0.78 µg/mL (≈ 0.994 µM) and the MIC [30] was 0.01 µg/mL (≈ 0.0127 µM). It also gave an MIC [31] greater than 100 µg/mL, an MIC [32] of 0.78 µg/mL (≈ 0.994 µM) and an MIC [33] greater than 100 µg/mL.
`CC[C@H]1OC(=O)[C@H](C)C(=O)[C@H](C)[C@@H](O[C@@H]2O[C@H](C)C[C@H](N(C)C)[C@H]2O)[C@](C)(OC)C[C@@H](C)C2=NC[C@H](COC(=O)c3ccncc3)N3C(=O)O[C@@]1(C)[C@H]3[C@H]2C` [Example 138] gave an MIC [1] greater than 100 µg/mL, an MIC [2] of 0.39 µg/mL (≈ 0.505 µM) and an MIC [3] of 50 µg/mL (≈ 64.7 µM). It also gave an MIC [4] of 0.39 µg/mL (≈ 0.505 µM), an MIC [5] greater than 100 µg/mL and an MIC [6] of 1.56 µg/mL (≈ 2.02 µM). It also gave an MIC [7] of 0.39 µg/mL (≈ 0.505 µM), an MIC [8] greater than 100 µg/mL and an MIC [9] greater than 100 µg/mL. It also gave an MIC [10] greater than 100 µg/mL, an MIC [11] of 0.78 µg/mL (≈ 1.01 µM) and an MIC [12] of 100 µg/mL (≈ 129 µM). The MIC [13] was 50 µg/mL (≈ 64.7 µM), the MIC [14] was 0.02 µg/mL (≈ 0.0259 µM) and the MIC [15] was greater than 100 µg/mL. It also gave an MIC [16] greater than 100 µg/mL, an MIC [17] of 0.39 µg/mL (≈ 0.505 µM) and an MIC [18] of 0.78 µg/mL (≈ 1.01 µM). It also gave an MIC [19] greater than 100 µg/mL, an MIC [20] of 0.39 µg/mL (≈ 0.505 µM) and an MIC [21] of 0.02 µg/mL (≈ 0.0259 µM). It also gave an MIC [22] of 0.1 µg/mL (≈ 0.129 µM), an MIC [23] of 0.1 µg/mL (≈ 0.129 µM) and an MIC [24] of 50 µg/mL (≈ 64.7 µM). The MIC [25] was 0.39 µg/mL (≈ 0.505 µM), the MIC [26] was greater than 100 µg/mL and the MIC [27] was 50 µg/mL (≈ 64.7 µM). For the same compound, the MIC [28] was greater than 100 µg/mL, the MIC [29] was 3.1 µg/mL (≈ 4.01 µM) and the MIC [30] was 0.01 µg/mL (≈ 0.0129 µM). It also gave an MIC [31] greater than 100 µg/mL, an MIC [32] of 0.39 µg/mL (≈ 0.505 µM) and an MIC [33] greater than 100 µg/mL.
Compound `CC[C@H]1OC(=O)[C@H](C)C(=O)[C@H](C)[C@@H](O[C@@H]2O[C@H](C)C[C@H](N(C)C)[C@H]2O)[C@](C)(OC)C[C@@H](C)C2=NCC(COC(=O)c3ccc([N+](=O)[O-])cc3)N3C(=O)O[C@@]1(C)[C@H]3[C@H]2C` (stereo partly drawn) [Example 140] has an MIC [1] greater than 100 µg/mL, an MIC [2] of 0.1 µg/mL (≈ 0.122 µM) and an MIC [3] of 25 µg/mL (≈ 30.6 µM). The MIC [4] was 0.1 µg/mL (≈ 0.122 µM), the MIC [5] was greater than 100 µg/mL and the MIC [6] was 0.2 µg/mL (≈ 0.245 µM). The MIC [7] was 0.1 µg/mL (≈ 0.122 µM), the MIC [8] was 50 µg/mL (≈ 61.2 µM) and the MIC [9] was greater than 100 µg/mL. It also gave an MIC [10] greater than 100 µg/mL, an MIC [11] of 0.39 µg/mL (≈ 0.477 µM) and an MIC [12] of 25 µg/mL (≈ 30.6 µM). The MIC [13] was 50 µg/mL (≈ 61.2 µM), the MIC [14] was no more than 0.005 µg/mL and the MIC [15] was greater than 100 µg/mL. The MIC [16] was greater than 100 µg/mL, the MIC [17] was 0.1 µg/mL (≈ 0.122 µM) and the MIC [18] was 0.78 µg/mL (≈ 0.955 µM). For the same compound, the MIC [19] was greater than 100 µg/mL, the MIC [20] was 0.1 µg/mL (≈ 0.122 µM) and the MIC [21] was 0.01 µg/mL (≈ 0.0122 µM). For the same compound, the MIC [22] was 0.05 µg/mL (≈ 0.0612 µM), the MIC [23] was 0.02 µg/mL (≈ 0.0245 µM) and the MIC [24] was 50 µg/mL (≈ 61.2 µM). It also gave an MIC [25] of 0.1 µg/mL (≈ 0.122 µM), an MIC [26] greater than 100 µg/mL and an MIC [27] of 50 µg/mL (≈ 61.2 µM). For the same compound, the MIC [28] was greater than 100 µg/mL, the MIC [29] was 0.39 µg/mL (≈ 0.477 µM) and the MIC [30] was no more than 0.005 µg/mL. The MIC [31] was greater than 100 µg/mL, the MIC [32] was 0.1 µg/mL (≈ 0.122 µM) and the MIC [33] was greater than 100 µg/mL.
